Measurements: patent US10519134B2, “Pyrazole compounds and methods of making and using same” (Lundbeck La Jolla Research Center, Inc., priority 2015, dated 2019)

Tests used:
MAGL = molecular target: T1, MAGL (Mus musculus, UniProt O35678); experiment: In vitro competitive activity-based protein profiling (mouse), MAGL gel band; type: biochemical; conditions: for inhibition at 1 µM: read-out: MAGL % inh. 1 μM; for IC50: mouse
T1 construct: Proteomes (mouse brain membrane fraction or cell lysates); from tissue; host or cells: mouse brain membrane fraction (or cell lysates)
T1 sequence (O35678 1-303): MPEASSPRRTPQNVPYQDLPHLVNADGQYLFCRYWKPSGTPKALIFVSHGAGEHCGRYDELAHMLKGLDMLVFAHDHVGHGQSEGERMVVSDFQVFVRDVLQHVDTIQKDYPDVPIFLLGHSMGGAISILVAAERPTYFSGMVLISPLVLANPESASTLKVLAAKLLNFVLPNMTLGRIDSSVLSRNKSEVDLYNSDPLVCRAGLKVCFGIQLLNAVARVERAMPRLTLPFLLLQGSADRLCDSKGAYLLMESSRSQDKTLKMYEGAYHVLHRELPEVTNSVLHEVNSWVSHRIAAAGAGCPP
Procedure, shortened: (§1)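 Mouse brain membrane proteome or cell lysate (1.0 mg/mL total protein) was preincubated with varying inhibitor concentrations for 30 min at 37 °C, then labelled for 30 min at 37 °C with FP-Rh or HT-01 (50 μM stock in DMSO). Activity was read as fluorescent band intensity after SDS-PAGE.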

FAAH = molecular target: T2, FAAH (Mus musculus, UniProt O08914); experiment: In vitro competitive activity-based protein profiling (mouse), FAAH gel band; type: biochemical; conditions: for inhibition at 1 µM: read-out: FAAH % inh. 1 μM; for IC50: mouse
T2 construct: Proteomes (mouse brain membrane fraction or cell lysates); from tissue; host or cells: mouse brain membrane fraction (or cell lysates)
T2 sequence (O08914 1-579): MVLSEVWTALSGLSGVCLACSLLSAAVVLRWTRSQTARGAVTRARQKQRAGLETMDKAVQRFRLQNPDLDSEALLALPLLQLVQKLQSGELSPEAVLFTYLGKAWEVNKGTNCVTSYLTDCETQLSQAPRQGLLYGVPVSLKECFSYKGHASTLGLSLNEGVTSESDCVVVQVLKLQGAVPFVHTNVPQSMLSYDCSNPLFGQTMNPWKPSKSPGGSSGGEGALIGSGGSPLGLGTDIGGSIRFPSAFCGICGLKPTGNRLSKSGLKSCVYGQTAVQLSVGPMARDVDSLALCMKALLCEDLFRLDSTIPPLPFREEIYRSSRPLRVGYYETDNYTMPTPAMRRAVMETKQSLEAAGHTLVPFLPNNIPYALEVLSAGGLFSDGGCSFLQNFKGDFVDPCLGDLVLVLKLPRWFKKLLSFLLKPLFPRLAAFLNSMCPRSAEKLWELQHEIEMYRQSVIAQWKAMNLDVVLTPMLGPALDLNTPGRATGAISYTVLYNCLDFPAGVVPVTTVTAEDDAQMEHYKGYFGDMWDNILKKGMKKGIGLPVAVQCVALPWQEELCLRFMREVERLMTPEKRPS
Procedure, shortened: as §1

Compound	inhibition at 1 µM (MAGL) [%]	inhibition at 1 µM (FAAH) [%]	IC50 (MAGL) [nM]	IC50 (FAAH) [µM]
CS(=O)(=O)Nc1ccn(C(=O)N2CCN(Cc3ccc(N4CCC(C(=O)O)CC4)c(C(F)(F)F)c3)CC2)n1 [Example 169, 1-(4-((4-(3-(methylsulfonamido)-1H-pyrazole-1-carbonyl)piperazin-1-yl)methyl)-2-(trifluoromethyl)phenyl)piperidine-4-carboxylic acid]	0 to 25	0 to 25	–	–
CS(=O)(=O)Nc1ccn(C(=O)N2CCC3(CCCN3Cc3cc(N4CCCC4)cc(C(F)(F)F)c3)CC2)n1 [Example 163, N-(1-(1-(3-(pyrrolidin-1-yl)-5-(trifluoromethyl)benzyl)-1,8-diazaspiro[4.5]decane-8-carbonyl)-1H-pyrazol-3-yl) methanesulfonamide]	≥ 75	0 to 25	–	–
CCN1CCN(c2cc(C(F)(F)F)ccc2CN2CCCC23CCN(C(=O)n2ccc(NS(C)(=O)=O)n2)CC3)CC1 [Example 238, N-(1-(1-(2-(4-ethylpiperazin-1-yl)-4-(trifluoromethyl)benzyl)-1,8-diazaspiro[4.5]decane-8-carbonyl)-1H-pyrazol-3-yl) methanesulfonamide]	0 to 25	0 to 25	–	–
CS(=O)(=O)Nc1ccn(C(=O)N2CCC3(CCCN3Cc3ccc(Cl)cc3N3CCCC3)CC2)n1 [Example 131, N-(1-(1-(4-chloro-2-(pyrrolidin-1-yl)benzyl)-1,8-diazaspiro[4.5]decane-8-carbonyl)-1H-pyrazol-3-yl)methanesulfonamide]	50 to 75	0 to 25	–	–
CC(=O)N(C)c1ccn(C(=O)N2CCC3(CCCN3Cc3cc(N4C5CCC4COC5)cc(C(F)(F)F)c3)CC2)n1 [Example 67, N-(1-(1-(3-(3-oxa-8-azabicyclo[3.2.1]octan-8-yl)-5-(trifluoromethyl)benzyl)-1,8-diazaspiro[4.5]decane-8-carbonyl)-1H-pyrazol-3-yl)-N-methylacetamide]	0 to 25	0 to 25	–	–
Cc1ccc(CN2CCN(C(=O)n3ccc(NS(C)(=O)=O)n3)CC2)c(N2CCOCC2)c1 [Example 147, N-(1-(4-(4-methyl-2-morpholinobenzyl)piperazine-1-carbonyl)-1H-pyrazol-3-yl) methanesulfonamide]	≥ 75	0 to 25	–	–
CS(=O)(=O)Nc1ccn(C(=O)N2CCN(Cc3ccc(Cl)c(-c4cnccn4)c3)CC2)n1 [Example 283, N-(1-(4-(4-chloro-3-(pyrazin-2-yl)benzyl)piperazine-1-carbonyl)-1H-pyrazol-3-yl) methanesulfonamide]	≥ 75	0 to 25	–	–
CS(=O)(=O)Nc1ccn(C(=O)N2CCC3(CCCN3Cc3ccc(C(F)(F)F)cc3N3CCCCC3)CC2)n1 [Example 133, N-(1-(1-(2-(piperidin-1-yl)-4-(trifluoromethyl)benzyl)-1,8-diazaspiro[4.5]decane-8-carbonyl)-1H-pyrazol-3-yl)methanesulfonamide]	≥ 75	0 to 25	100 to 1000	1 to 10
CS(=O)(=O)Nc1ccn(C(=O)N2CCC3(CCCN3Cc3cc(N4CCC(C(=O)O)CC4)cc(C(F)(F)F)c3)CC2)n1 [Example 246, 1-(3-((8-(3-(methylsulfonamido)-1H-pyrazole-1-carbonyl)-1,8-diazaspiro[4.5]decan-1-yl)methyl)-5-(trifluoromethyl)phenyl) piperidine-4-carboxylic acid]	0 to 25	0 to 25	–	–
CC(=O)Nc1ccn(C(=O)N2CCN(Cc3ccc(Cl)cc3N3CCC(F)CC3)CC2)n1 [Example 7, N-(1-(4-(4-chloro-2-(4-fluoropiperidin-1-yl)benzyl)piperazine-1-carbonyl)-1H-pyrazol-3-yl)acetamide]	≥ 75	0 to 25	≤ 100	1 to 10
CS(=O)(=O)Nc1ccn(C(=O)N2CCN(Cc3ccc(Cl)cc3N3CC4CCC(C3)O4)CC2)n1 [Example 256, N-(1-(4-(2-(8-oxa-3-azabicyclo[3.2.1]octan-3-yl)-4-chlorobenzyl)piperazine-1-carbonyl)-1H-pyrazol-3-yl) methanesulfonamide]	≥ 75	0 to 25	≤ 100	1 to 10
CC(=O)N(C)c1ccn(C(=O)N2CCN(Cc3cc(N4CCCC4)cc(C(F)(F)F)c3)CC2)n1 [Example 70, N-methyl-N-(1-(4-(3-(pyrrolidin-1-yl)-5-(trifluoromethyl)benzyl)piperazine-1-carbonyl)-1H-pyrazol-3-yl)acetamide]	≥ 75	0 to 25	100 to 1000	1 to 10
CC(=O)N(C)c1ccn(C(=O)N2CCN(Cc3ccc(C(F)(F)F)cc3N3CCCC3)CC2)n1 [Example 2, N-methyl-N-(1-(4-(2-(pyrrolidin-1-yl)-4-(trifluoromethyl)benzyl)piperazine-1-carbonyl)-1H-pyrazol-3-yl)acetamide]	≥ 75	0 to 25	100 to 1000	1 to 10
CC(=O)Nc1ccn(C(=O)N2CCC3(CCCN3Cc3ccc(C(F)(F)F)c(C(=O)O)c3)CC2)n1 [Example 108, 5-((8-(3-acetamido-1H-pyrazole-1-carbonyl)-1,8-diazaspiro[4.5]decan-1-yl)methyl)-2-(trifluoromethyl)benzoic Acid]	50 to 75	0 to 25	–	–
CS(=O)(=O)Nc1ccn(C(=O)N2CCN(Cc3cc(N4CCCC4)ccc3C(F)(F)F)CC2)n1 [Example 195, N-(1-(4-(5-(pyrrolidin-1-yl)-2-(trifluoromethyl)benzyl)piperazine-1-carbonyl)-1H-pyrazol-3-yl) methanesulfonamide]	≥ 75	0 to 25	–	–
CC(=O)Nc1ccn(C(=O)N2CCC3(CCCN3Cc3ccc(C(F)(F)F)cc3N3CCN(C(C)=O)CC3)CC2)n1 [Example 22, N-(1-(1-(2-(4-acetylpiperazin-1-yl)-4-(trifluoromethyl)benzyl)-1,8-diazaspiro[4.5]decane-8-carbonyl)-1H-pyrazol-3-yl)acetamide]	≥ 75	0 to 25	100 to 1000	1 to 10
CS(=O)(=O)Nc1ccn(C(=O)N2CCN(Cc3cc(N4CCC(C(=O)O)CC4)cc(C(F)(F)F)c3)CC2)n1 [Example 242, 1-(3-((4-(3-(methylsulfonamido)-1H-pyrazole-1-carbonyl)piperazin-1-yl)methyl)-5-(trifluoromethyl)phenyl)piperidine-4-carboxylic acid]	0 to 25	0 to 25	–	–
CS(=O)(=O)Nc1ccn(C(=O)N2CCN(Cc3ccc(C(F)(F)F)cc3N3CCCCC3)CC2)n1 [Example 129, N-(1-(4-(2-(piperidin-1-yl)-4-(trifluoromethyl)benzyl)piperazine-1-carbonyl)-1H-pyrazol-3-yl) methanesulfonamide]	≥ 75	0 to 25	≤ 100	1 to 10
CC(=O)Nc1ccn(C(=O)N2CCC3(CCCN3Cc3ccc4nc(C)oc4c3)CC2)n1 [Example 265, N-(1-(1-((2-methylbenzo[d]oxazol-6-yl)methyl)-1,8-diazaspiro[4.5]decane-8-carbonyl)-1H-pyrazol-3-yl)acetamide]	≥ 75	0 to 25	100 to 1000	1 to 10
